Measured values reported in ChEMBL document CHEMBL4414554, “Colocalization Strategy Unveils an Underside Binding Site in the Transmembrane Domain of Smoothened Receptor” (J Med Chem, 2019).
The source made the active and inactive calls. The calls are words filed in the database; no cut-off is given here.

Key:
Protein smoothened [1] = molecular target: Protein smoothened (Mus musculus, UniProt P56726); test: (§1) Antagonist activity at SMO in mouse NIH/3T3 cells harboring Gli-responsive firefly luciferase gene assessed as inhibition of SAG-induced response preincubated for 2 hrs followed by SAG addition and measured after 24 hrs by Bright-Glo luciferase assay; assay type: cell-based
Protein smoothened (Mus musculus, UniProt P56726), sequence (P56726 whole entry): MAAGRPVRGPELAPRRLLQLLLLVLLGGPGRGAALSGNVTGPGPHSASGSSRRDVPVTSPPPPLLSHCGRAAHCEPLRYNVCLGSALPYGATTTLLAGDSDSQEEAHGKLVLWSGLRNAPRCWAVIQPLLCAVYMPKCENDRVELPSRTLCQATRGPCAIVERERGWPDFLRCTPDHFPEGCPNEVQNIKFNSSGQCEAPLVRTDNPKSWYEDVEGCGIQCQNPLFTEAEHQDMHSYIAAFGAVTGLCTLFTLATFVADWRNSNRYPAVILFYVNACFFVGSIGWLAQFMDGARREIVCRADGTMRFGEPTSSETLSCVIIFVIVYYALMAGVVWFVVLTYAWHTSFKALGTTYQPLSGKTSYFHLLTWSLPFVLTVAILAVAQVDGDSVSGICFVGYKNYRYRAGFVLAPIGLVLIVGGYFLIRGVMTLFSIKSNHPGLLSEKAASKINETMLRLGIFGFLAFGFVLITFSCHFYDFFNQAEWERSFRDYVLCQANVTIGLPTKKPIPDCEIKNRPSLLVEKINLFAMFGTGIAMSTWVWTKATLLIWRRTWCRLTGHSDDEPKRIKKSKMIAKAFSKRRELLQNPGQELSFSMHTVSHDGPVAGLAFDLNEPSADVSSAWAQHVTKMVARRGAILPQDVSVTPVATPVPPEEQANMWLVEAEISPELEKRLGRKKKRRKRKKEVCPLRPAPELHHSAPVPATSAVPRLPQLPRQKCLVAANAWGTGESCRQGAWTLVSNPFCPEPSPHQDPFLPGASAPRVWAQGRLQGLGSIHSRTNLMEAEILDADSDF

Protein smoothened [2] = molecular target: T1, Protein smoothened (Homo sapiens, UniProt Q99835); test: Binding affinity to recombinant human SMO at 0.1 to 20 uM preincubated for 1 hr followed by 365 nm UV irradiation for 20 mins and subsequent addition of TAMRA-N3 measured after 1 hr by fluorescence-based SDS-PAGE analysis
T1 sequence (Q99835 whole entry): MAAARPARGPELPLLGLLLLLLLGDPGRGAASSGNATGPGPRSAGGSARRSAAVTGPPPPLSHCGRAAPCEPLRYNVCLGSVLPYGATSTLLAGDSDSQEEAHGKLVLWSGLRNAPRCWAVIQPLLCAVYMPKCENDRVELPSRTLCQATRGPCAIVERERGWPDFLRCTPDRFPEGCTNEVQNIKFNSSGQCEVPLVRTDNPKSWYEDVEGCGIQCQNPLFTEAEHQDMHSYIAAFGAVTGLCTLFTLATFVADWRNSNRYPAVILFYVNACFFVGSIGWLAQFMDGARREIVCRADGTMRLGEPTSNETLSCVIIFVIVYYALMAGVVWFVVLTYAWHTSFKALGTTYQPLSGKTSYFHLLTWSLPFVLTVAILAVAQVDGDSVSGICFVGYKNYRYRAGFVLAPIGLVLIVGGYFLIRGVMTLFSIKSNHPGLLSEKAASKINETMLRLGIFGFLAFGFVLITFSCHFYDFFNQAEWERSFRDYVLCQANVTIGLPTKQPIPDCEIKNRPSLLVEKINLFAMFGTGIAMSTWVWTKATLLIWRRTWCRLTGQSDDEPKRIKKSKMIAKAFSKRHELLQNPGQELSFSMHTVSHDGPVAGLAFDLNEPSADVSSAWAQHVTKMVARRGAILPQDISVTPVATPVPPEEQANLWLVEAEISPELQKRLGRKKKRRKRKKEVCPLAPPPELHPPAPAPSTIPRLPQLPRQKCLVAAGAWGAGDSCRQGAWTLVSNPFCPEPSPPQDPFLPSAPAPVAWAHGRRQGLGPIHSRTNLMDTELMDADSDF

Protein smoothened [3] = molecular target: T1, Protein smoothened; test: Displacement of BODIPY-LY from SMO (unknown origin) expressed in HEK293F cells measured after 15 mins by flow cytometric analysis; assay type: cell-based
Protein smoothened [4] = molecular target: T1, Protein smoothened; test: Binding affinity to recombinant SMO Glu518 residue (unknown origin) assessed as modification of NRPSLLVEK (511 to 519 residue) at 20 uM preincubated for 3 hrs followed by UV irradiation for 15 mins by MS/MS analysis
Protein smoothened [5] = molecular target: T1, Protein smoothened; test: Binding affinity to recombinant SMO Leu498 residue (unknown origin) at 20 uM preincubated for 3 hrs followed by UV irradiation for 15 mins by MS/MS analysis
Protein smoothened [6] = molecular target: T1, Protein smoothened; test: Binding affinity to recombinant SMO Glu135 residue (unknown origin) at 20 uM preincubated for 3 hrs followed by UV irradiation for 15 mins by MS/MS analysis
Protein smoothened [7] = molecular target: T1, Protein smoothened; test: Binding affinity to recombinant SMO Lys510 residue (unknown origin) at 20 uM preincubated for 3 hrs followed by UV irradiation for 15 mins by MS/MS analysis
Protein smoothened [8] = molecular target: T1, Protein smoothened; test: Binding affinity to recombinant SMO Lys186 residue (unknown origin) at 20 uM preincubated for 3 hrs followed by UV irradiation for 15 mins by MS/MS analysis
Protein smoothened [9] = molecular target: T1, Protein smoothened; test: Binding affinity to recombinant SMO Glu158 residue (unknown origin) at 20 uM preincubated for 3 hrs followed by UV irradiation for 15 mins by MS/MS analysis
Protein smoothened [10] = molecular target: T1, Protein smoothened; test: Binding affinity to recombinant SMO His103 residue (unknown origin) at 20 uM preincubated for 3 hrs followed by UV irradiation for 15 mins by MS/MS analysis
Protein smoothened [11] = molecular target: T1, Protein smoothened; test: Binding affinity to recombinant SMO Thr528 residue (unknown origin) assessed as modification of INLFAMFGTGIAMSTWVWTKATLLIWRR peptide at 20 uM preincubated for 3 hrs followed by UV irradiation for 15 mins by MS/MS analysis
Protein smoothened [12] = molecular target: T1, Protein smoothened; test: Binding affinity to recombinant SMO Gly527 residue (unknown origin) assessed as modification of INLFAMFGTGIAMSTWVWTKATLLIWRR peptide at 20 uM preincubated for 3 hrs followed by UV irradiation for 15 mins by MS/MS analysis
Protein smoothened [13] = molecular target: T1, Protein smoothened; test: Binding affinity to recombinant SMO Gly529 residue (unknown origin) assessed as modification of INLFAMFGTGIAMSTWVWTKATLLIWRR peptide at 20 uM preincubated for 3 hrs followed by UV irradiation for 15 mins by MS/MS analysis
Protein smoothened [14] = molecular target: T1, Protein smoothened; test: Binding affinity to recombinant SMO Thr349 residue (unknown origin) at 20 uM preincubated for 3 hrs followed by UV irradiation for 15 mins by MS/MS analysis
Protein smoothened [15] = molecular target: T1, Protein smoothened; test: Binding affinity to recombinant SMO Ala345 residue (unknown origin) at 20 uM preincubated for 3 hrs followed by UV irradiation for 15 mins by MS/MS analysis
[16] = molecular target: Protein smoothened (Mus musculus) (UniProt P56726); test: as §1; assay type: cell-based
Protein smoothened (Mus musculus), sequence (P56726 whole entry): as the sequence (P56726 whole entry) above

Compound | IC50 (Protein smoothened [1]) | Ki (Protein smoothened [3]) | also measured
C[C@H]1C(=O)N(C2CCCCC2)C(=O)N1Cc1ccccc1 | 8010 nM |  | 
C#CCOc1ccc(N2C(=O)[C@H](C)N(Cc3ccc(N=[N+]=[N-])cc3)C2=O)cc1 | 31 nM | 28 nM | Activity (Protein smoothened [2]): Active
C[C@H]1C(=O)N(c2ccc(Cl)cc2)C(=O)N1CCc1ccccc1 | 92 nM |  | 
C[C@H]1C(=O)N(c2ccc(Cl)cc2)C(=O)N1Cc1c(F)c(F)c(F)c(F)c1F | 7380 nM |  | 
C[C@H]1C(=O)N(c2ccc(N=[N+]=[N-])cc2)C(=O)N1Cc1ccccc1 | 58 nM | 55 nM | Activity (Protein smoothened [4]): Active; Activity (Protein smoothened [5]): Active; Activity (Protein smoothened [6]): Active; Activity (Protein smoothened [7]): Active; Activity (Protein smoothened [8]): Active
FC(F)(F)Oc1ccc(-c2ccnc(Nc3ccc4[nH]ncc4c3)n2)cc1 |  | 30 nM | 
C[C@H]1C(=O)N(c2ccc(Cl)cc2)C(=O)N1Cc1ccc(N=[N+]=[N-])cc1 | 3 nM | 45 nM | Activity (Protein smoothened [9]): Active; Activity (Protein smoothened [10]): Active; Activity (Protein smoothened [11]): Active; Activity (Protein smoothened [12]): Active; Activity (Protein smoothened [13]): Active; Activity (Protein smoothened [14]): Active; Activity (Protein smoothened [15]): Active
C[C@H]1C(=O)N(c2c(F)c(F)c(F)c(F)c2F)C(=O)N1Cc1ccccc1 | 1530 nM |  | 
C[C@H]1C(=O)N(c2ccc(Cl)cc2)C(=O)N1Cc1ccc(C2(C(F)(F)F)N=N2)cc1 |  |  | inhibition (Protein smoothened [3]): inactive; Activity [16]: inactive
C[C@H]1C(=O)N(c2ccc(Cl)cc2)C(=O)N1c1ccccc1 | 547 nM |  | 
C[C@H]1C(=O)N(Cc2ccc(Cl)cc2)C(=O)N1Cc1ccccc1 | 8100 nM |  | 
C[C@H]1C(=O)N(c2ccc(Cl)cc2)C(=O)N1Cc1ccccc1 | 59 nM | 33 nM | 
C[C@H]1C(=O)N(c2ccc(Cl)cc2)C(=O)N1CC1CCCCC1 | 383 nM |  | 
C[C@H]1CN(c2ccc(Cl)cc2)C(=O)N1Cc1ccccc1 | 4550 nM |  | 
C[C@H]1C(=O)N(c2ccc(Cl)cc2)C(=S)N1Cc1ccccc1 | 3790 nM |  | 
